Read-outs that look alike come from different tables or passages of the source.
How the values were obtained:
[1] = test system: KRAS G12C mutant MIA PaCa-2 cells; test: Cell proliferation inhibition experiment, 3D spheroid, CellTiter-Glo, MIA PaCa-2; type: cell-based, human; details: 3D cell model in 384-well spheroid plate, 5 days, CellTiter-Glo, read-out: MIA-PaCa2 IC50
In short: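 200 MIA PaCa-2 cells/well grown overnight as 3D spheroids, then exposed to 3.16-fold compound dilutions (0.1% DMSO final) for 5 days. Viability read by CellTiter-Glo luminescence; inhibition calculated against DMSO and medium-only controls, and IC50 fitted by four-parameter model.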

[2] = test system: KRAS G12C mutant NCI-H358 cells; test: Cell proliferation inhibition experiment, 3D spheroid, CellTiter-Glo, NCI-H358; type: cell-based, human; details: Homo sapiens, NCI-H358, 120 h, NCI-H358 (KRAS G12C mutant) 3D spheroid, 5 days with compound, CellTiter-Glo; read-out: H358 IC50
In short: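 Spheroids grown overnight from 800 H358 or 400 A549 cells were treated for 5 days with serially diluted compound (3.16-fold, 0.1% DMSO, 2% FBS). ATP-based luminescence gave IC50.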

[3] = Homo sapiens, MIA PaCa-2, 120 h

Row | SMILES | IC50 [1, 3] [nM] | IC50 [2] [nM] | IC50 [1] [nM]
1 | C=CC(=O)N1CCN2C(=O)c3c(N4C[C@H](OC)CC4(C)C)nc(-c4c(O)cccc4F)c(Cl)c3OC[C@H]2C1 (single isomer, unassigned) [Z244-2] | 1 | 0.5 | 
2 | C=CC(=O)N1CCN2C(=O)c3c(N4C[C@H](N(C)CCOC)CC4(C)C)nc(-c4c(O)cccc4F)c(Cl)c3OC[C@H]2C1 (single isomer, unassigned) [Z296-2] | 8 | 2.4 | 
3 | C=CC(=O)N1CCN2C(=O)c3c(N4CCCC4(C)C)nc(-c4c(O)cccc4F)c(Cl)c3OC[C@H]2C1 [Z22, (6aR)-8-acryloyl-4-chloro-1-(2,2-dimethylpyrrolidin-1-yl)-3-(2-fluoro-6-hydroxyphenyl)-6,6a,7,8,9,10-hexahydro-12H-pyrazino[2,1-c]pyrido[3,4-f][1,4]oxazepin-12-one] | 7 | 2 | 
4 | C=CC(=O)N1CCN2C(=O)c3c(N4CC[C@H](OC)[C@@H]4C)nc(-c4c(O)cccc4F)c(Cl)c3OC[C@H]2C1 [Z347-1, (6aR)-8-acryloyl-4-chloro-3-(2-fluoro-6-hydroxyphenyl)-1-((2S,3S)-3-methoxy-2-methylpyrrolidin-1-yl)-6,6a,7,8,9,10-hexahydro-12H-pyrazino[2,1-c]pyrido[3,4-f][1,4]oxazepin-12-one] | 4 | 2.1 | 
5 | C=CC(=O)N1CCN2C(=O)c3c(N4CCN(C)[C@H](C)[C@@H]4C)nc(-c4c(O)cccc4F)c(Cl)c3OC[C@H]2C1 (single isomer, unassigned) [Z308a-1] | 7.8 | 7.1 | 
6 | C=CC(=O)N1CCN2C(=O)c3c(N4C[C@H](N5CCOCC5)CC4(C)C)nc(-c4c(O)cccc4F)c(Cl)c3OC[C@H]2C1 (single isomer, unassigned) [Z297-1] | 3 | 1 | 
7 | C=CC(=O)N1CCN2C(=O)c3c(N4C[C@H](OC)CC4(C)C)nc(-c4c(O)cccc4F)c(F)c3OC[C@H]2C1 (single isomer, unassigned) [Z256a-2] | 3.8 | 1.4 | 
8 | C=CC(=O)N1CCN2C(=O)c3c(N4C[C@H](O)CC4(C)C)nc(-c4c(O)ccc(Cl)c4F)c(F)c3OC[C@H]2C1 (single isomer, unassigned) [Z340-2] | 74 | 26.7 | 
9 | C=CC(=O)N1CCN2C(=O)c3c(N4C[C@@H](N(C)CCOC)C[C@@H]4C)nc(-c4c(O)cccc4F)c(Cl)c3OC[C@H]2C1 [Z358-1] | 7.2 | 4.8 | 
10 | C=CC(=O)N1CCN2C(=O)c3c(N4C[C@H](N(C)C)CC4(C)C)nc(-c4c(O)cccc4F)c(Cl)c3OC[C@H]2C1 (single isomer, unassigned) [Z324-2] | 6.1 | 4.4 | 
11 | C=CC(=O)N1CCN2C(=O)c3c(N4CC(OC)CC4(C)C)nc(-c4c(O)cccc4F)c(Cl)c3OC[C@H]2C1 (stereo partly drawn) [Z244, (6aR)-8-acryloyl-4-chloro-3-(2-fluoro-6-hydroxyphenyl)-1-(4-methoxy-2,2-dimethylpyrrolidin-1-yl)-12-oxo-6,6a,7,8,9,10-hexahydro-12H-pyrazino[2,1-c]pyrido[3,4-f][1,4]oxazepin-12-one] | 7 | 2.9 | 
12 | C=CC(=O)N1CCN2C(=O)c3c(N4CCC(C)(C)C4)nc(-c4c(O)cccc4F)c(Cl)c3OC[C@H]2C1 [Z21, (6aR)-8-acryloyl-4-chloro-1-(3,3-dimethylpyrrolidin-1-yl)-3-(2-fluoro-6-hydroxyphenyl)-6,6a,7,8,9,10-hexahydro-12H-pyrazino[2,1-c]pyrido[3,4-f][1,4]oxazepin-12-one] | 65 | 29 | 
13 | C=CC(=O)N1CCN2C(=O)c3c(N4CCN(C5COC5)C[C@@H]4C)nc(-c4c(O)cccc4F)c(Cl)c3OC[C@H]2C1 (single isomer, unassigned) [Z239-1] | 20 | 15 | 
14 | C=CC(=O)N1CCN2C(=O)c3c(N4C[C@@H](N(C)C)C[C@@H]4C)nc(-c4c(O)cccc4F)c(Cl)c3OC[C@H]2C1 [Z237-2, (6aR)-8-acryloyl-4-chloro-1-((2S,4S)-4-(dimethylamino)-2-methylpyrrolidin-1-yl)-3-(2-fluoro-6-hydroxyphenyl)-6,6a,7,8,9,10-hexahydro-12H-pyrazino[2,1-c]pyrido[3,4-f][1,4]oxazepin-12-one] | 7.7 | 6 | 
15 | C=CC(=O)N1CCN2C(=O)c3c(N4C[C@@H](O)CC4(C)C)nc(-c4c(F)ccc(F)c4O)c(F)c3OC[C@H]2C1 (single isomer, unassigned) [Z449-1] | 22 | 7 | 
16 | C=CC(=O)N1CCN2C(=O)c3c(N4CC[C@H](OC)C4(C)C)nc(-c4c(O)cccc4F)c(F)c3OC[C@H]2C1 (single isomer, unassigned) [Z327-2] | 16.2 | 8.4 | 
17 | C=CC(=O)N1CCN2C(=O)c3c(N4C[C@H](O)CC4(C)C)nc(-c4ccccc4F)c(Cl)c3OC[C@H]2C1 (single isomer, unassigned) [Z325-2] | 15.5 | 6.1 | 
18 | C=CC(=O)N1CCN2C(=O)c3c(N4C[C@H](OC)C[C@@H]4C)nc(-c4c(O)cccc4F)c(Cl)c3OC[C@H]2C1 [Z259a, (6aR)-8-acryloyl-4-chloro-3-(2-fluoro-6-hydroxyphenyl)-1-((2S,4R)-4-methoxy-2-methylpyrrolidin-1-yl)-6,6a,7,8,9,10-hexahydro-12H-pyrazino[2,1-c]pyrido[3,4-f][1,4]oxazepin-12-one] | 4.4 | 3 | 
19 | C=CC(=O)N1CCN2C(=O)c3c(N4C[C@](C)(O)CC4(C)C)nc(-c4c(O)cccc4F)c(Cl)c3OC[C@H]2C1 (single isomer, unassigned) [Z243-2] | 22.2 | 11.1 | 
20 | C=CC(=O)N1CCN2C(=O)c3c(N4CCN(C)C(=O)[C@@H]4C)nc(-c4c(O)cccc4F)c(Cl)c3OC[C@H]2C1 [Z311-1, (6aR)-8-actyloyl-4-chloro-1-((S)-2,4-dimethyl-3-oxopiperazin-1-yl)-3-(2-fluoro-6-hydroxyphenyl)-6,6a,7,8,9,10-hexahydro-12H-pyrazino[2,1-c]pyrido[3,4-f][1,4]oxazepin-12-one] | 12 | 10 | 
21 | C=CC(=O)N1CCN2C(=O)c3c(N4CC(C#N)CC4(C)C)nc(-c4c(O)cccc4F)c(Cl)c3OC[C@H]2C1 (stereo partly drawn) [Z275, (6aR)-8-acryloyl-1-(4-cyano-2,2-dimethylpyrrolidin-1-yl)-4-chloro-3-(2-fluoro-6-hydroxyphenyl)-6,6a,7,8,9,10-hexahydro-12H-pyrazino[2,1-c]pyrido[3,4-f][1,4]oxazepin-12-one] | 5 | 2.1 | 
22 | C=CC(=O)N1CCN2C(=O)c3c(N4CCN(C)C[C@@H]4C)nc(-c4c(F)ccc(F)c4O)c(Cl)c3OC[C@H]2C1 [Z356, (6aR)-8-acryloyl-4-chloro-3-(3,6-difluoro-2-hydroxyphenyl)-1-((S)-2,4-dimethylpiperazin-1-yl)-6,6a,7,8,9,10-hexahydro-12H-pyrazino[2,1-c]pyrido[3,4-f][1,4]oxazepin-12-one] | 29 | 20 | 
23 | C=CC(=O)N1CCN2C(=O)c3c(N4CCN(S(C)(=O)=O)C[C@@H]4C)nc(-c4c(O)cccc4F)c(Cl)c3OC[C@H]2C1 [Z318-1, (6aR)-8-acryloyl-1-((S)-2-methyl-4-(methylsulfonyl)piperazin-1-yl)-4-chloro-3-(2-fluoro-6-hydroxyphenyl)-6,6a,7,8,9,10-hexahydro-12H-pyrazino[2,1-c]pyrido[3,4-f][1,4]oxazepin-12-one] | 10.9 | 5.7 | 
24 | C=CC(=O)N1CCN2C(=O)c3c(N4CC(C#N)CC4(C)C)nc(-c4c(O)cccc4F)c(F)c3OC[C@H]2C1 (stereo partly drawn) [Z335] | 18 | 11 | 
25 | C=CC(=O)N1CCN2C(=O)c3c(N4CCN(CCOC)C(C)(C)C4)nc(-c4c(O)cccc4F)c(Cl)c3OC[C@H]2C1 [Z321, (6aR)-8-acryloyl-4-chloro-3-(2-fluoro-6-hydroxyphenyl)-1-(4-(2-methoxyethyl)-3,3-dimethylpiperazin-1-yl)-6,6a,7,8,9,10-hexahydro-12H-pyrazino[2,1-c]pyrido[3,4-f][1,4]oxazepin-12-one] | 7 | 4.5 | 
26 | C=CC(=O)N1CCN2C(=O)c3c(N4CCC(OC)C4(C)C)nc(-c4c(O)cccc4F)c(Cl)c3OC[C@H]2C1 (stereo partly drawn) [Z241a, (6aR)-8-acryloyl-4-chloro-3-(2-fluoro-6-hydroxyphenyl)-1-(3-methoxy-2,2-dimethylpyrrolidin-1-yl)-6,6a,7,8,9,10-hexahydro-12H-pyrazino[2,1-c]pyrido[3,4-f][1,4]oxazepin-12-one] | 2.4 | 1.1 | 
27 | C=CC(=O)N1CCN2C(=O)c3c(N4CCN(C)C(C)C4C)nc(-c4c(O)cccc4F)c(Cl)c3OC[C@H]2C1 (stereo partly drawn) [Z369, (6aR)-8-acryloyl-4-chloro-3-(2-fluoro-6-hydroxyphenyl)-1-(2,3,4-trimethylpiperazin-1-yl)-6,6a,7,8,9,10-hexahydro-12H-pyrazino[2,1-c]pyrido[3,4-f][1,4]oxazepin-12-one] |  | 3.6 | 6
28 | C=CC(=O)N1CCN2C(=O)c3c(N4CC[C@@H](N(C)C)C4(C)C)nc(-c4c(O)cccc4F)c(Cl)c3OC[C@H]2C1 (single isomer, unassigned) [Z360-1] | 19.6 | 11.8 | 
29 | C=CC(=O)N1CCN2C(=O)c3c(N4C[C@H](CO)CC4(C)C)nc(-c4c(O)cccc4F)c(Cl)c3OC[C@H]2C1 (single isomer, unassigned) [Z240-2] | 3.3 | 1.9 | 
30 | C=CC(=O)N1CCN2C(=O)c3c(N4CC[C@@H]5C[C@@H]54)nc(-c4c(O)cccc4F)c(Cl)c3OC[C@H]2C1 (single isomer, unassigned) [Z39-2] | 13 | 7.8 | 

Reference: US20230203060A1 (GENFLEET THERAPEUTICS (SHANGHAI) INC., priority 2020, published 2023)
